According to ChEMBL document CHEMBL3046557, “Synthesis, biological evaluation, and molecular modeling studies of novel heterocyclic compounds as anti-proliferative agents” (2013):

How the values were obtained:
Assay type in all cases: functional
OVCAR-5 = assay: Cytotoxicity against human OVCAR5 after 48 hrs by SRB assay; conditions: OVCAR-5, 48 h
Malme-3M = assay: Cytotoxicity against human MALME-3M after 48 hrs by SRB assay
NCI-H226 = assay: Cytotoxicity against human NCI-H226 after 48 hrs by SRB assay; conditions: NCI-H226, 48 h
MCF7 = assay: Cytotoxicity against human MCF7 after 48 hrs by SRB assay; conditions: MCF7, 48 h
OVCAR-8 = assay: Cytotoxicity against human OVCAR8 after 48 hrs by SRB assay; conditions: OVCAR-8, 48 h
OVCAR-3 = assay: Cytotoxicity against human OVCAR3 after 48 hrs by SRB assay; conditions: OVCAR-3, 48 h
SK-OV-3 = assay: Cytotoxicity against human SKOV3 after 48 hrs by SRB assay; conditions: SK-OV-3, 48 h
SF-295 = assay: Cytotoxicity against human SF295 after 48 hrs by SRB assay; conditions: SF-295, 48 h
[1] = Cytotoxicity against human NCI-ADR-RES after 48 hrs by SRB assay
SF-268 = assay: Cytotoxicity against human SF268 after 48 hrs by SRB assay; conditions: SF-268, 48 h
CAKI-1 = assay: Cytotoxicity against human Caki1 after 48 hrs by SRB assay; conditions: CAKI-1, 48 h
NCI-H23 = assay: Cytotoxicity against human NCI-H23 after 48 hrs by SRB assay; conditions: NCI-H23, 48 h
Hs-578T = assay: Cytotoxicity against human Hs 578T after 48 hrs by SRB assay
SF-539 = assay: Cytotoxicity against human SF539 after 48 hrs by SRB assay; conditions: SF-539, 48 h
PC-3 = assay: Cytotoxicity against human PC3 after 48 hrs by SRB assay; conditions: PC-3, 48 h
UACC-257 = assay: Cytotoxicity against human UACC257 after 48 hrs by SRB assay; conditions: UACC-257, 48 h
M14 = assay: Cytotoxicity against human M14 after 48 hrs by SRB assay; conditions: M14, 48 h
SNB-19 = assay: Cytotoxicity against human SNB19 after 48 hrs by SRB assay; conditions: SNB-19, 48 h
MDA-MB-231 = assay: Cytotoxicity against human MDA-MB-231 after 48 hrs by SRB assay; conditions: MDA-MB-231, 48 h
LOX IMVI = assay: Cytotoxicity against human LOXIMVI after 48 hrs by SRB assay
ACHN = assay: Cytotoxicity against human ACHN after 48 hrs by SRB assay
HT-29 = assay: Cytotoxicity against human HT-29 after 48 hrs by SRB assay; conditions: HT-29, 48 h
NCI-H460 = assay: Cytotoxicity against human NCI-H460 after 48 hrs by SRB assay; conditions: NCI-H460, 48 h
DU-145 = assay: Cytotoxicity against human DU145 after 48 hrs by SRB assay; conditions: DU-145, 48 h
HCC 2998 = assay: Cytotoxicity against human HCC2998 after 48 hrs by SRB assay; conditions: HCC 2998, 48 h
OVCAR-4 = assay: Cytotoxicity against human OVCAR4 after 48 hrs by SRB assay; conditions: OVCAR-4, 48 h
COLO 205 = assay: Cytotoxicity against human COLO205 after 48 hrs by SRB assay; conditions: COLO 205, 48 h
KM12 = assay: Cytotoxicity against human KM12 after 48 hrs by SRB assay; conditions: KM12, 48 h
CCRF-CEM = assay: Cytotoxicity against human CCRF-CEM after 48 hrs by SRB assay
RPMI-8226 = assay: Cytotoxicity against human RPMI8226 after 48 hrs by SRB assay; conditions: RPMI-8226, 48 h
SK-MEL-2 = assay: Cytotoxicity against human SK-MEL-2 after 48 hrs by SRB assay; conditions: SK-MEL-2, 48 h
K562 = assay: Cytotoxicity against human K562 after 48 hrs by SRB assay; conditions: K562, 48 h
HCT-116 = assay: Cytotoxicity against human HCT116 after 48 hrs by SRB assay; conditions: HCT-116, 48 h
A549 = assay: Cytotoxicity against human A549 after 48 hrs by SRB assay; conditions: A549, 48 h
UACC-62 = assay: Cytotoxicity against human UACC62 after 48 hrs by SRB assay; conditions: UACC-62, 48 h
NCI-H522 = assay: Cytotoxicity against human NCI-H522 after 48 hrs by SRB assay; conditions: NCI-H522, 48 h
HOP-92 = assay: Cytotoxicity against human HOP92 after 48 hrs by SRB assay; conditions: HOP-92, 48 h
SNB-75 = assay: Cytotoxicity against human SNB75 after 48 hrs by SRB assay; conditions: SNB-75, 48 h
786-0 = assay: Cytotoxicity against human 786-0 after 48 hrs by SRB assay; conditions: 786-0, 48 h
SK-MEL-28 = assay: Cytotoxicity against human SK-MEL-28 after 48 hrs by SRB assay; conditions: SK-MEL-28, 48 h
EKVX = assay: Cytotoxicity against human EKVX after 48 hrs by SRB assay
SK-MEL-5 = assay: Cytotoxicity against human SK-MEL-5 after 48 hrs by SRB assay; conditions: SK-MEL-5, 48 h
MOLT-4 = assay: Cytotoxicity against human MOLT4 after 48 hrs by SRB assay; conditions: MOLT-4, 48 h
RXF 393 = assay: Cytotoxicity against human RXF393 after 48 hrs by SRB assay; conditions: RXF 393, 48 h
T47D = assay: Cytotoxicity against human T47D after 48 hrs by SRB assay
SR = assay: Cytotoxicity against human SR after 48 hrs by SRB assay
U-251 = assay: Cytotoxicity against human U251 after 48 hrs by SRB assay; conditions: U-251, 48 h
TK-10 = assay: Cytotoxicity against human TK10 after 48 hrs by SRB assay; conditions: TK-10, 48 h
SW-620 = assay: Cytotoxicity against human SW620 after 48 hrs by SRB assay; conditions: SW-620, 48 h
SN12C = assay: Cytotoxicity against human SN12C after 48 hrs by SRB assay
HOP-62 = assay: Cytotoxicity against human HOP62 after 48 hrs by SRB assay; conditions: HOP-62, 48 h
MDA-MB-435 = assay: Cytotoxicity against human MDA-MB-435 after 48 hrs by SRB assay; conditions: MDA-MB-435, 48 h
UO-31 = assay: Cytotoxicity against human UO31 after 48 hrs by SRB assay; conditions: UO-31, 48 h
NCI-H322M = assay: Cytotoxicity against human NCI-H322M after 48 hrs by SRB assay
BT-549 = assay: Cytotoxicity against human BT549 after 48 hrs by SRB assay; conditions: BT-549, 48 h
HCT-15 = assay: Cytotoxicity against human HCT15 after 48 hrs by SRB assay; conditions: HCT-15, 48 h

SMILES: CC12CCC(C(CN3C(=O)C(=O)c4ccccc43)C1=O)C2(C)C (configuration not stated)
- GI50 (OVCAR-5): 14.8 µM
- TGI (OVCAR-5): 28.4 µM
- GI50 (Malme-3M): 26.9 µM
- TGI (Malme-3M): 44.8 µM
- GI50 (NCI-H226): 21.8 µM
- TGI (NCI-H226): 61 µM
- GI50 (MCF7): 5.8 µM
- TGI (MCF7): 24.6 µM
- GI50 (OVCAR-8): 2.86 µM
- TGI (OVCAR-8): 6.97 µM
- GI50 (OVCAR-3): 15.6 µM
- TGI (OVCAR-3): 33.5 µM
- GI50 (SK-OV-3): 14.8 µM
- TGI (SK-OV-3): 28.5 µM
- GI50 (SF-295): 11.1 µM
- TGI (SF-295): 24.3 µM
- GI50 [1]: 12.7 µM
- TGI [1]: 35.3 µM
- GI50 (SF-268): 15.8 µM
- TGI (SF-268): 36 µM
- GI50 (CAKI-1): 16.3 µM
- TGI (CAKI-1): 31.3 µM
- GI50 (NCI-H23): 14.5 µM
- TGI (NCI-H23): 29.6 µM
- GI50 (Hs-578T): 13.8 µM
- TGI (Hs-578T): 32.6 µM
- GI50 (SF-539): 12.8 µM
- TGI (SF-539): 25.8 µM
- GI50 (PC-3): 11.9 µM
- TGI (PC-3): 25.9 µM
- GI50 (UACC-257): 13.9 µM
- TGI (UACC-257): 31.1 µM
- GI50 (M14): 15.9 µM
- TGI (M14): 33.5 µM
- GI50 (SNB-19): 13.8 µM
- TGI (SNB-19): 26.6 µM
- GI50 (MDA-MB-231): 15.1 µM
- TGI (MDA-MB-231): 30 µM
- GI50 (LOX IMVI): 10.4 µM
- TGI (LOX IMVI): 24.5 µM
- GI50 (ACHN): 16.2 µM
- TGI (ACHN): 29.7 µM
- GI50 (HT-29): 5.45 µM
- TGI (HT-29): 20.4 µM
- GI50 (NCI-H460): 16.9 µM
- TGI (NCI-H460): 36.5 µM
- GI50 (DU-145): 14.9 µM
- TGI (DU-145): 28.1 µM
- GI50 (HCC 2998): 13.5 µM
- TGI (HCC 2998): 27.5 µM
- GI50 (OVCAR-4): 18.8 µM
- TGI (OVCAR-4): 44.1 µM
- GI50 (COLO 205): 12.6 µM
- TGI (COLO 205): 29.2 µM
- GI50 (KM12): 4.12 µM
- TGI (KM12): 12.5 µM
- GI50 (CCRF-CEM): 7.46 µM
- TGI (CCRF-CEM): 28.6 µM
- GI50 (RPMI-8226): 3.22 µM
- TGI (RPMI-8226): 17.2 µM
- GI50 (SK-MEL-2): 19 µM
- TGI (SK-MEL-2): 41.7 µM
- GI50 (K562): 2.46 µM
- TGI (K562): 8.2 µM
- GI50 (HCT-116): 1.95 µM
- TGI (HCT-116): 3.76 µM
- GI50 (A549): 16.9 µM
- TGI (A549): 32.9 µM
- GI50 (UACC-62): 16.2 µM
- TGI (UACC-62): 30.6 µM
- GI50 (NCI-H522): 13.5 µM
- TGI (NCI-H522): 29.4 µM
- GI50 (HOP-92): 17.9 µM
- TGI (HOP-92): 38.3 µM
- GI50 (SNB-75): 17.1 µM
- TGI (SNB-75): 33.1 µM
- GI50 (786-0): 16.8 µM
- TGI (786-0): 30.8 µM
- GI50 (SK-MEL-28): 19.7 µM
- TGI (SK-MEL-28): 39.5 µM
- GI50 (EKVX): 19.6 µM
- TGI (EKVX): 37.9 µM
- GI50 (SK-MEL-5): 17.3 µM
- TGI (SK-MEL-5): 33 µM
- GI50 (MOLT-4): 3.51 µM
- TGI (MOLT-4): 10.6 µM
- GI50 (RXF 393): 5.46 µM
- TGI (RXF 393): 16.9 µM
- GI50 (T47D): 20.6 µM
- TGI (T47D): 46.7 µM
- GI50 (SR): 1.53 µM
- TGI (SR): 4.02 µM
- GI50 (U-251): 15.4 µM
- TGI (U-251): 29.3 µM
- GI50 (TK-10): 14.8 µM
- TGI (TK-10): 28.5 µM
- GI50 (SW-620): 3.21 µM
- TGI (SW-620): 9.25 µM
- GI50 (SN12C): 15.3 µM
- TGI (SN12C): 31.6 µM
- GI50 (HOP-62): 15.6 µM
- TGI (HOP-62): 30.1 µM
- GI50 (MDA-MB-435): 15.6 µM
- TGI (MDA-MB-435): 32.9 µM
- GI50 (UO-31): 13.2 µM
- TGI (UO-31): 26.2 µM
- GI50 (NCI-H322M): 23.4 µM
- TGI (NCI-H322M): 38.3 µM
- GI50 (BT-549): 12.3 µM
- TGI (BT-549): 24.8 µM
- GI50 (HCT-15): 17.1 µM
- TGI (HCT-15): 34.7 µM
